One data set has as its target human NLRP3 (Homo sapiens, UniProt Q96P20). Kind of data set: SPR analysis of interaction with human NLRP3. The format is binding. Here is the method:
VEN-02XX was profiled in vitro to confirm specific binding to human NLRP3 as well as activity in various cellular assays.
The human NLRP3 protein was immobilized onto a nickel-NTA surface (Xantec NiHC1500M). Assay was run in 25 mM HEPES pH 7.5, 150 mM NaCl, 5 mM MgCl2, 0.5 mM TCEP, 0.5 mM ADP, 0.05% Tween-20 and 1% DMSO at 25 °C. Single-cycle method was used, and compound was injected over surface with a contact time of 120 s on and 600 s off by Biocore 8 K machine (Cytiva). A 5-points solvent correction curve was run pre and post run to correct for refractive index of DMSO. Data was then analyzed using the Biacore evaluation software to report binding kinetic parameters.
Background: Surface plasmon resonance follows binding to a sensor surface in real time, without labels.

Data set [1] deals with NLRP3 inflammasome, IL-18 in iPSC-derived microglia. In words: iPSC-derived microglia in vitro assay, secreted IL-18. It is filed as cell-based. The note with it: geometric mean, n = 5. The procedure: iPSC-derived microglia (BX-0900, BrainXell, Madison, WI) were thawed and recovered as per the supplier’s instructions. Briefly, viable cells were counted post-thaw using Trypan Blue, 0.4% (Thermo Fisher Scientific) and 25,000 cells were seeded on poly-d-lysine coated 96-well plates in DMEM-F/12 medium (Thermo Fisher Scientific) supplemented with 1X B-27 supplement (Thermo Fisher Scientific), 1X N-2 supplement (Thermo Fisher Scientific), 1X Non-essential amino acids (Thermo Fisher Scientific), 1X Chemically defined lipid mix (Thermo Fisher Scientific), 1 mM GlutaMax (Thermo Fisher Scientific), 0.2 mM Ascorbic Acid (Millipore), 100 ng/mL IL-34 (PeproTech, Cranbury, NJ), 2 ng/mL TGF-β1 (PeproTech) and 20 ng/mL M-CSF (PeproTech). Fresh media was added 3 days after seeding, half of which was replenished with fresh media 6 days following seeding. The assay was performed 7 days after cells were seeded in 96-well plates. Two assay protocol variations were performed: cells were either pre-treated with VEN-02XX to block NLRP3 inflammasome formation and then primed with LPS (Fig. 1, D. Compound added before LPS priming) or were primed with LPS and then treated with VEN-02XX (Fig. 1, D. Compound added after LPS priming). For compound treatment, cells were treated with VEN-02XX for 1 h (top concentration 100 µM; 3-fold titration) to block NLRP3 inflammasome formation. […]

The test system of data set [2] is TNFα in iPSC-derived microglia. In words: iPSC-derived microglia in vitro assay, secreted TNFα (specificity). The format is cell-based. The note with it: for IC50: Microglia. The procedure:
iPSC-derived microglia (BX-0900, BrainXell, Madison, WI) were thawed and recovered as per the supplier’s instructions. Briefly, viable cells were counted post-thaw using Trypan Blue, 0.4% (Thermo Fisher Scientific) and 25,000 cells were seeded on poly-d-lysine coated 96-well plates in DMEM-F/12 medium (Thermo Fisher Scientific) supplemented with 1X B-27 supplement (Thermo Fisher Scientific), 1X N-2 supplement (Thermo Fisher Scientific), 1X Non-essential amino acids (Thermo Fisher Scientific), 1X Chemically defined lipid mix (Thermo Fisher Scientific), 1 mM GlutaMax (Thermo Fisher Scientific), 0.2 mM Ascorbic Acid (Millipore), 100 ng/mL IL-34 (PeproTech, Cranbury, NJ), 2 ng/mL TGF-β1 (PeproTech) and 20 ng/mL M-CSF (PeproTech). Fresh media was added 3 days after seeding, half of which was replenished with fresh media 6 days following seeding. The assay was performed 7 days after cells were seeded in 96-well plates. Two assay protocol variations were performed: cells were either pre-treated with VEN-02XX to block NLRP3 inflammasome formation and then primed with LPS (Fig. 1, D. Compound added before LPS priming) or were primed with LPS and then treated with VEN-02XX (Fig. 1, D. Compound added after LPS priming). For compound treatment, cells were treated with VEN-02XX for 1 h (top concentration 100 µM; 3-fold titration) to block NLRP3 inflammasome formation. For LPS priming, cells were primed with 100 ng/mL LPS (E.coli O26:B6, Millipore) for 4 h. At the end of either protocol, cells were stimulated with 10 uM Nigericin (Millipore) for 1 h, after which conditioned media was collected for analysis of secreted IL-1β, IL-18 and TNFα in an electrochemiluminescence immunoassay (Mesoscale Discovery).

The nature of data set [3]: Mouse pharmacokinetic study, 7 days oral dosing, blood. It is filed as in vivo. Conditions: WT mice. Here is the method:
Male C57Bl/6 mice (weight 20–30 g, age 6–8 weeks old) were obtained from Charles River Laboratories Canada, and acclimated for 5 days before the study. Three animals were dosed by oral gavage during 7 days with 20 mg/kg of VEN-02XX suspended in 0.5% w/v methylcellulose/0.2% w/v Tween 80, at a dose volume of 10 mL/kg. Food and water were available ad libitum to all animals. On day 7, serial blood samples were collected from a tail snip at 0.25, 0.5, 1, 2, 4, 6, and 24 h post-dose, and […] of blood was added to a micro tube racked system pre-filled with […] of 10 mM sodium citrate buffer (final blood/buffer ratio 1:3, or dilution factor of 4). The plate was stored at −20 °C until LC-MS/MS analysis.
Concentrations of VEN-02XX in plasma and brain were determined by a LC-MS/MS assay. The plasma samples were thawed at room temperature and 20 μL aliquot of each sample was added to a 1.2 mL deep 96-well plate containing 20 µL ACN. The standard curve was prepared by making different dilutions in ACN. A 20 µL standard solution at each concentration was added into a 96-deepwell plate, followed by addition of 20 µL blank plasma or brain homogenate. Then, 200 μL of an internal standard mixture (5 ng/mL Glyburide and Loperamide in ACN) was added to each sample. The plates were vortexed and centrifuged at 4000 rpm for 10 min at 4 °C; 70 μL of the supernatant was diluted with 140 μL of water, and 10 μL of the solution was injected onto an analytical column. A Shimadzu UPLC system coupled with a SCIEX 4500 mass spectrometer (AB Sciex, Foster City, CA) was used for sample analysis. The mobile phase A was 0.1% FA in water and mobile phase B was 0.1% FA in 1/5 IPA/ACN. The gradient started at 10% B, held for 0.2 min and increased to 95% B in 1.3 min, maintained at 95% B for 0.7 min, and then decreased to 10% B within 0.01 min. The total flow rate was 0.5 mL/min, and samples were injected onto an Acquity UPLC BEH C18 (2.1 mm × 5 cm, 2.3 u) analytical column with a total run time of 2.5 min. Data were acquired using multiple reactions monitoring (MRM) in positive ion electrospray mode with an operating source temperature of 400 °C. Two transitions were monitored for VEN-02XX and the more sensitive transition with less interference (397.1 –> 270.1) was used for quantification.
Pharmacokinetic parameters were determined by non-compartmental analysis using WinNonLin software (Phoenix^TM, version 8.3), and the following parameters were calculated from the plasma concentrations versus time data: T1/2, Cmax, Tmax, AUCinf, AUClast. When appropriate, the brain Kp was calculated as AUClast(brain)/AUClast(plasma). Free brain partition coefficient (Kpuu) was calculated using the free fraction in plasma and brain measured in a high throughput equilibrium dialysis assay.

Another data set deals with 5XFAD/Rubicon KO mice. In words: Spontaneous alternation (Y-maze) in 5XFAD/Rubicon KO mice. The format is in vivo, mouse. The procedure: 5XFAD/Rubicon KO mice received vehicle (0.5% w/v methylcellulose/0.1% w/v Tween® 80 in water) or VEN-02XX (0.01, 1, or 20 mg/kg) every day by oral gastric gavage for 9 weeks.
Spontaneous alternation was measured in a standard Y-maze setup. Mice were acclimated to the testing room for 48 h. In each 5-min trial, percent spontaneous alternation was measured as […][32]. Any mouse with less than 5 arm entries during the 5 min trial was excluded from the analysis.

Setting [4] is: compound added after LPS priming.
The mark [5] stands for this setting: compound added before LPS priming.
The mark [6] stands for this setting: male, C57Bl/6, mouse, whole blood, blood, 20 mg/kg PO QD for seven days.

Chain of human NLRP3 (Q96P20 whole entry): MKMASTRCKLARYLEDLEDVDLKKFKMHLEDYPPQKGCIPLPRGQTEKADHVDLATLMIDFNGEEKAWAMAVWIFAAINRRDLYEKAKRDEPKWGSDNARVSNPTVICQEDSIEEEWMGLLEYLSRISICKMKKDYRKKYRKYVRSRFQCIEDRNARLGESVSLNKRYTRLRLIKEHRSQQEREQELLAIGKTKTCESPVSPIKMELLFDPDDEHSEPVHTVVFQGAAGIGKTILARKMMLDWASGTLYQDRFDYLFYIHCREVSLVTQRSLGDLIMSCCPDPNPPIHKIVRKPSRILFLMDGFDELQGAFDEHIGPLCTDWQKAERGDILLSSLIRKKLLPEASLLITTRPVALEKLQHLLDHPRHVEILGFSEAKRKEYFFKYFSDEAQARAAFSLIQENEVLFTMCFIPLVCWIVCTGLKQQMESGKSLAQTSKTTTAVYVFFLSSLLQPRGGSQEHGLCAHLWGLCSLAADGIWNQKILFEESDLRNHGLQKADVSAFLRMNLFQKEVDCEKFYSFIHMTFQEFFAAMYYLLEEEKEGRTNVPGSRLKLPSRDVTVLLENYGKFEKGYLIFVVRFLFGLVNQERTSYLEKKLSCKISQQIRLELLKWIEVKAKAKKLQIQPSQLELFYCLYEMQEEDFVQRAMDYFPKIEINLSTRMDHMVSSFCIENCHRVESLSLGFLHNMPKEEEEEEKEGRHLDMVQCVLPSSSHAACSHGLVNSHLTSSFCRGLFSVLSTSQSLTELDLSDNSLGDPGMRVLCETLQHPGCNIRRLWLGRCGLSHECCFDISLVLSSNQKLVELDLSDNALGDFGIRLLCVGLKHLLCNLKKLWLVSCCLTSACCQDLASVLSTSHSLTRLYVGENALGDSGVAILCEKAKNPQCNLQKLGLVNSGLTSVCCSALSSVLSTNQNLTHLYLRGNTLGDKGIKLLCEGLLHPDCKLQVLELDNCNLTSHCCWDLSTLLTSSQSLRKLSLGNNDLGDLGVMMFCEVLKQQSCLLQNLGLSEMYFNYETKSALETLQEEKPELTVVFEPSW

`CC(C)(O)CNc1nnc(-c2ccc(Cl)cc2C(F)(F)F)c2ccncc12` [VEN-02XX] registered a Kd on human NLRP3 (human NLRP3) of 93.3 nM. Moreover, the residence time on human NLRP3 (human NLRP3, read-out: residence time (1/kd) (converted)) is 12.9 min. Moreover, the kon at human NLRP3 (pH 7.5, 1:1 binding, read-out: ka) is 13800 M⁻¹ s⁻¹. Besides, the IC50 was 220 nM in data set [1] (setting [4]), 280 nM in data set [1] (setting [5]), above 10000 nM in data set [2] (setting [4]) and above 30000 nM in data set [2] (setting [5]). Besides, in data set [2] (specificity, in words), the “TNFα inhibition in cellular assay” value was “lack of TNFα inhibition”. Besides, the “NLRP3 inhibitory activity maintained by exposure” value in data set [3] (20 mg/kg PO once daily, 7 days) is “sufficient to maintain a 50% inhibitory activity of NLRP3 throughout the dosing schedule”. This compound also came in with a total exposure AUC(0-inf) in data set [3] (setting [6]) of 143 µM·h. The same compound came in with a Cmax in data set [3] (setting [6]) of 20.7 µM. The Tmax in data set [3] (setting [6]) is 1 h. This compound had a half-life in data set [3] (setting [6]) of 3.16 h. For the same compound, the “spontaneous alternation (Y-maze)” value in the data set on 5XFAD/Rubicon KO mice (9 weeks, 0.01, 1, 20 mg/kg PO QD vs vehicle) is given as “striking dose-dependent improvement”. Also, in the data set on 5XFAD/Rubicon KO mice (9 weeks, 20 mg/kg PO QD), the “spontaneous alternation (Y-maze), learning and memory” value is “restoration of learning and memory to near wild type control levels for most animals”.

As usually defined, the Kd is the concentration at which binding is half-saturated. A lower Kd goes with higher affinity. What is called IC50 is the concentration that inhibits the measured activity by half. A higher IC50 goes with weaker potency. As a reminder, the AUC(0-inf) is total exposure, with the tail of the curve extrapolated. What is called Cmax is the maximum level reached in the sampled fluid or tissue. Usually Tmax stands for the time at which the peak concentration occurs. In general, half-life refers to how long it takes for the measured level to halve. Lower therefore signals rapid decline.

The values are drawn from article PMC12055592, “Post-symptomatic NLRP3 inhibition rescues cognitive impairment and mitigates amyloid and tau driven neurodegeneration” (Npj Dementia, 2025).
